The source of these data is US6884415B2, “Antioxidation food product, antioxidation preparation and antioxidation method” (Otsuka Pharmaceutical Co., Ltd., priority 1993, dated 2005).

In this test the target is T1, MPO (myeloperoxidase) (Homo sapiens, UniProt P05164).
T1 sequence (P05164 49-745): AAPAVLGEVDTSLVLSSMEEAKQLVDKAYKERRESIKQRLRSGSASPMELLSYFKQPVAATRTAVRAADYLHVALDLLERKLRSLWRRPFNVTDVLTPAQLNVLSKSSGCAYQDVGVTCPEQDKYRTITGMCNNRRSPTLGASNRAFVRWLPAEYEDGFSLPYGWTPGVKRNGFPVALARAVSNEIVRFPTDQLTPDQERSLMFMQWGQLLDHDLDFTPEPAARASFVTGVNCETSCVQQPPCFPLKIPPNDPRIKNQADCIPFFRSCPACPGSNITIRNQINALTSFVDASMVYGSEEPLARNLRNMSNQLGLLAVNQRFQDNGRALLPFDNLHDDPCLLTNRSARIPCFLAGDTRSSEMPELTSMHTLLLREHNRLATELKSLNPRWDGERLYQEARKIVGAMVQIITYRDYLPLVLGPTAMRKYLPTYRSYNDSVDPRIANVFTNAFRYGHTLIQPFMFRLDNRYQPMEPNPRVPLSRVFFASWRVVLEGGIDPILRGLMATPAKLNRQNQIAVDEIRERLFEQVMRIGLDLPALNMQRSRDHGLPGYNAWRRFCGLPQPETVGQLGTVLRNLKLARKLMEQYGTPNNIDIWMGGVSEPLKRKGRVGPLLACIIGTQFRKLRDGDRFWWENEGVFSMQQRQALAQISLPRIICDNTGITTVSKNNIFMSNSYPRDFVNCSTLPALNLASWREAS
In words: MPO (myeloperoxidase) activity inhibition. Format: biochemical. The following applies: MPO purified enzyme, pH 5.4, 25° C. The procedure: To 2.9 ml of a 50 mM phosphate buffer (pH: 5.4) containing 0.1% hydrogen peroxide and 1.03 mM o-dianisidine, 50 μl of a test solution and 50 μl of a MPO purified enzyme (1.24 units/ml) were added and, after incubating in a cuvet at 25° C., measuring a change in absorbance (λ: 450 nm) was measured for 5 minutes. As a blank, 50 μl of a 50 mM phosphate buffer (pH: 5.4) was used.
As the test solution, a tea extract solution obtained by extracting a green tea with hot water and a solution obtained by measuring the concentration of Mn in the tea extract solution and adding MnCl2 in an APT broth so that the concentration of Mn in the medium may be the same as that of the tea extract solution were used. Then, […]
Therefore, it was examined whether the component contained in the tea other than Mn is connected with the MPO activity inhibition or not. That is, according to the same manner as that described above, the MPO inhibition activity was examined using a purified catechin as the component other than Mn.

Consider catechin, for which the “concentration at which the MPO inhibition effect is exhibited” value is at least 1.5 µg/mL.
